Source: patent US4571408A, “α,β-Dihydropolyprenyl derivatives for treating hepatitis” (Eisai Co., Ltd., priority 1980, dated 1986)

Legend:
[1] = test system: liver disease (hepatitis) induced by D-galactosamine; experiment: Activity against liver disease (hepatitis) induced by D-galactosamine; format: in vivo, rats (SD strain); conditions: test compound orally 400 mg./kg. each time (0, 4, 10, 24 h); D-galactosamine hydrochloride s.c. 200 mg./kg. (4, 10, 24 h); blood collection at 28 h; nine rats per group
Method: Activity against liver disease (hepatitis) induced by D-galactosamine
D-Galactosamine hydrochloride and the above-listed compound were administered (1) subcutaneously in the dosage of 200 mg./kg. each time and (2) orally in the dosage of 400 mg./kg. each time, respectively, to rats (SD strain, weight: approximately 250 g.) according to the schedule described hereinafter. After completion of the administrations, the blood was collected from the rats and there were measured the GOT value, GPT value and alkali phosphotase value, all of which are indicative of the degree of liver disease.
Each test compound was administered in the form of a suspension thereof in a 5% aqueous gum arabic solution. The D-galactosamine hydrochloride was administered in the form of an aqueous solution thereof in distilled water adjusted to pH 7 by addition of potassium hydroxide.
There were provided the test compound groups (nine rats per each group) in which the rats were administered with the test compound and with D-galactosamine hydrochloride; a control group (fourteen rats) in which the rats were administered with a plain 5% aqueous gum arabic solution free of the test compound and with D-galactosamine hydrochloride; and a normal group (eight rats) in which the rats were not administered with either the test compound or D-galactosamine hydrochloride.
4 test compound and D-galactosamine
10 test compound and D-galactosamine
24 test compound and D-galactosamine

rats (Wistar strain) = experiment: Toxicity (oral administration to rats); format: in vivo; conditions: orally, 4,000 mg./kg., ten rats (Wistar strain), suspended in 5% aqueous gum arabic solution
Method: Each of the above-listed compounds, A, B, C and D was suspended in a 5% aqueous gum arabic solution and then was administered orally to ten rats (Wistar strain) in the dosage of 4,000 mg./kg.

Row | Structure (SMILES) | Alkali phosphatase value [1] | GOT value [1] | GPT value [1] | Deaths of the rats (rats (Wistar strain))
1 | CC(C)=CCC/C(C)=C/CC/C(C)=C/CCC(C)CC(=O)O (stereo not shown) [Compound A, (E, E)-3,7,11,15-tetramethyl-6,10,14-hexadecatrienoic acid] | 56.2 KA - u | 312.4 carmen unit | 208.3 carmen unit | No deaths of the rats were observed
2 | CCOC(=O)CC(C)CC/C=C(\C)CC/C=C(\C)CCC=C(C)C (stereo not shown) [Compound B, ethyl (E, E)-3,7,11,15-tetramethyl-6,10,14-hexadecatrienoate] | 55.8 KA - u | 307.1 carmen unit | 199.7 carmen unit | No deaths of the rats were observed
3 | CC(C)=CCC/C(C)=C/CC/C(C)=C/CCC(C)CCO (stereo not shown) [Compound C, (E, E)-3,7,11,15-tetramethyl-6,10,14-hexadecatrien-1-ol] | 54.2 KA - u | 337.7 carmen unit | 185.6 carmen unit | No deaths of the rats were observed
4 | CC(=O)OCCC(C)CC/C=C(\C)CC/C=C(\C)CCC=C(C)C (stereo not shown) [Compound D, (E, E)-3,7,11,15-tetramethyl-6,10,14-hexadecatrienyl acetate] | 53.5 KA - u | 315.3 carmen unit | 178.7 carmen unit | No deaths of the rats were observed
